Experimental data: article PMC9090415, “Discovery of small molecule inhibitors of Plasmodium falciparum apicoplast DNA polymerase” (Journal of Enzyme Inhibition and Medicinal Chemistry, 2022)

Biological target: P. falciparum apicoplast DNA polymerase (Pf-apPOL) (Plasmodium falciparum, UniProt Q8ILY1)
Experiment: Fluorescence-based high-throughput DNA polymerase assay (molecular beacon), primary screen and dose-response;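 for % inhibition ApPOL 90': test concentration in µM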;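 for % inhibition Apol 40': compound concentration given in µM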;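 for % inhibition apPOL 180': test concentration in µM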
Assay type: biochemical
Settings: for DNA Pol: 90 min, 10 µM
Outline: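 Single-point screening used 10 µM compound with 20 nM polymerase, 20 nM hairpin substrate and 6 µM dNTPs for 90 min at 25 °C. Confirmatory titrations (2.5–80 µM) followed fluorescence at three times, and IC50 was derived from a fit including a cooperativity term n.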

[1] = "DNA Pol" of the 186 hits list (screen value)

Chain of P. falciparum apicoplast DNA polymerase (Pf-apPOL) (Q8ILY1 entry or part of it): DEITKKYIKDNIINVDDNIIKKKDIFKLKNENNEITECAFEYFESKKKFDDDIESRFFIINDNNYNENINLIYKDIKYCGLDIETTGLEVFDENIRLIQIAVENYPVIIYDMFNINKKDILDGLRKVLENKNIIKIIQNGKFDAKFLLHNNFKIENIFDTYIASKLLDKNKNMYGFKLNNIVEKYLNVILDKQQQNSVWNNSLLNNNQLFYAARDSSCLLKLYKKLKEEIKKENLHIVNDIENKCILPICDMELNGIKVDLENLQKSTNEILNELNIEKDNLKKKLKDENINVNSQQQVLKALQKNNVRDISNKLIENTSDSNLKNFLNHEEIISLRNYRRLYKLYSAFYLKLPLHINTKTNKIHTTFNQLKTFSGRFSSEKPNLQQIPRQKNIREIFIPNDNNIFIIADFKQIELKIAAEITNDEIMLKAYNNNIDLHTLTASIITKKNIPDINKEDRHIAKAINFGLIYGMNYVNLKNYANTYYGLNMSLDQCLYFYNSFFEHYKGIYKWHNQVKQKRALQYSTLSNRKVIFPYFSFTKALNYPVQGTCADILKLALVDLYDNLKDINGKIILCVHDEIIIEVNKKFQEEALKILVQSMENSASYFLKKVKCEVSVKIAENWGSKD

O=[N+]([O-])c1ccc(/C=C/c2ccc3ccccc3n2)o1 [Molecule 21, O=N(=O)c1ccc(o1)/C=C/c1ccc2c(n1)cccc2]
DNA Pol [1]: 59
% inhibition Apo pol 10' (DRC-1, concentration 2.5): 21.0135%
% inhibition Apo pol 10' (DRC-1, concentration 5): 49.9982%
% inhibition Apo pol 10' (DRC-1, concentration 10): 70.3482%
% inhibition Apo pol 10' (DRC-1, concentration 20): 76.4404%
% inhibition Apo pol 10' (DRC-1, concentration 40): 64.8126%
% inhibition Apo pol 10' (DRC-1, concentration 80): 40.0961%
% inhibition Apol 90' (DRC-1, concentration 2.5): 13.3257%
% inhibition Apol 90' (DRC-1, concentration 5): 34.694%
% inhibition Apol 90' (DRC-1, concentration 10): 59.8691%
% inhibition Apol 90' (DRC-1, concentration 20): 78.6772%
% inhibition Apol 90' (DRC-1, concentration 40): 78.7593%
% inhibition Apol 90' (DRC-1, concentration 80): 64.7186%
% inhibition apPOL 180' (DRC-1, concentration 2.5): 4.404%
% inhibition apPOL 180' (DRC-1, concentration 5): 20.9702%
% inhibition apPOL 180' (DRC-1, concentration 10): 46.0127%
% inhibition apPOL 180' (DRC-1, concentration 20): 74.6169%
% inhibition apPOL 180' (DRC-1, concentration 40): 82.0338%
% inhibition apPOL 180' (DRC-1, concentration 80): 72.6505%
% inhibition Apo pol 5' (DRC-2, concentration 2.5): 37%
% inhibition Apo pol 5' (DRC-2, concentration 5): 38%
% inhibition Apo pol 5' (DRC-2, concentration 10): 41%
% inhibition Apo pol 5' (DRC-2, concentration 20): 27%
% inhibition Apo pol 5' (DRC-2, concentration 40): 16%
% inhibition Apo pol 5' (DRC-2, concentration 80): -66%
% inhibition Apol 40' (DRC-2, concentration 2.5): 44%
% inhibition Apol 40' (DRC-2, concentration 5): 51%
% inhibition Apol 40' (DRC-2, concentration 10): 63%
% inhibition Apol 40' (DRC-2, concentration 20): 61%
% inhibition Apol 40' (DRC-2, concentration 40): 54%
% inhibition Apol 40' (DRC-2, concentration 80): 10%
% inhibition ApPOL 90' (DRC-2, concentration 2.5): 41%
% inhibition ApPOL 90' (DRC-2, concentration 5): 50%
% inhibition ApPOL 90' (DRC-2, concentration 10): 65%
% inhibition ApPOL 90' (DRC-2, concentration 20): 67%
% inhibition ApPOL 90' (DRC-2, concentration 40): 62%
% inhibition ApPOL 90' (DRC-2, concentration 80): 30%
% inhibition apPOL 180' (DRC-2, concentration 2.5): 29%
% inhibition apPOL 180' (DRC-2, concentration 5): 39%
% inhibition apPOL 180' (DRC-2, concentration 10): 61%
% inhibition apPOL 180' (DRC-2, concentration 20): 71%
% inhibition apPOL 180' (DRC-2, concentration 40): 69%
% inhibition apPOL 180' (DRC-2, concentration 80): 50%
DNA Pol (primary screen value, DNA Pol): 59

COc1cccc(C(=O)N2CCc3c(nc4cc(-c5ccccc5)[nH]n4c3=O)C2)c1OC [Molecule 22, COc1c(OC)cccc1C(=O)N1CCc2c(C1)nc1n(c2=O)[nH]c(c1)c1ccccc1]
DNA Pol [1]: 45
% inhibition Apo pol 10' (DRC-1, concentration 2.5): -0.412%
% inhibition Apo pol 10' (DRC-1, concentration 5): 25%
% inhibition Apo pol 10' (DRC-1, concentration 10): 67%
% inhibition Apo pol 10' (DRC-1, concentration 20): 81%
% inhibition Apo pol 10' (DRC-1, concentration 40): 88%
% inhibition Apo pol 10' (DRC-1, concentration 80): 81%
% inhibition Apol 90' (DRC-1, concentration 2.5): -3%
% inhibition Apol 90' (DRC-1, concentration 5): 12%
% inhibition Apol 90' (DRC-1, concentration 10): 49%
% inhibition Apol 90' (DRC-1, concentration 20): 67%
% inhibition Apol 90' (DRC-1, concentration 40): 83%
% inhibition Apol 90' (DRC-1, concentration 80): 84%
% inhibition apPOL 180' (DRC-1, concentration 2.5): -5.7%
% inhibition apPOL 180' (DRC-1, concentration 5): 2.34%
% inhibition apPOL 180' (DRC-1, concentration 10): 32%
% inhibition apPOL 180' (DRC-1, concentration 20): 49%
% inhibition apPOL 180' (DRC-1, concentration 40): 73%
% inhibition apPOL 180' (DRC-1, concentration 80): 78%
% inhibition Apo pol 5' (DRC-2, concentration 2.5): -0.913%
% inhibition Apo pol 5' (DRC-2, concentration 5): 19%
% inhibition Apo pol 5' (DRC-2, concentration 10): 42%
% inhibition Apo pol 5' (DRC-2, concentration 20): 52%
% inhibition Apo pol 5' (DRC-2, concentration 40): 55%
% inhibition Apo pol 5' (DRC-2, concentration 80): 47%
% inhibition Apol 40' (DRC-2, concentration 2.5): -1.15%
% inhibition Apol 40' (DRC-2, concentration 5): 21%
% inhibition Apol 40' (DRC-2, concentration 10): 45%
% inhibition Apol 40' (DRC-2, concentration 20): 61%
% inhibition Apol 40' (DRC-2, concentration 40): 69%
% inhibition Apol 40' (DRC-2, concentration 80): 66%
% inhibition ApPOL 90' (DRC-2, concentration 2.5): 0.469%
% inhibition ApPOL 90' (DRC-2, concentration 5): 20%
% inhibition ApPOL 90' (DRC-2, concentration 10): 44%
% inhibition ApPOL 90' (DRC-2, concentration 20): 61%
% inhibition ApPOL 90' (DRC-2, concentration 40): 70%
% inhibition ApPOL 90' (DRC-2, concentration 80): 70%
% inhibition apPOL 180' (DRC-2, concentration 2.5): -0.311%
% inhibition apPOL 180' (DRC-2, concentration 5): 13%
% inhibition apPOL 180' (DRC-2, concentration 10): 34%
% inhibition apPOL 180' (DRC-2, concentration 20): 53%
% inhibition apPOL 180' (DRC-2, concentration 40): 65%
% inhibition apPOL 180' (DRC-2, concentration 80): 69%
% inhibition Apo pol 10' (first DRC, concentration 10): 67%
% inhibition Apo pol 10' (first DRC, concentration 20): 81%
% inhibition Apo pol 10' (first DRC, concentration 80): 81%
% inhibition Apol 90' (first DRC, concentration 10): 49%
% inhibition Apol 90' (first DRC, concentration 20): 67%
% inhibition apPOL 180' (first DRC, concentration 20): 49%
DNA Pol (primary screen value, DNA Pol): 45
